# Assays:
# [1] = system: isolated rat liver mitochondria; assay: Residual functional capacity / inhibitory effect on ADP-stimulated (state 3) oxygen consumption; type: biochemical; details: for inhibitory effect on oxidative phosphorylation: 50 μM (FIG. 19); for Residual capacity (%): functional capacity (state 3 minus state 4 rate) as % of vehicle-treated mitochondria
# [2] = system: differentiated C2C12 skeletal muscle cells; assay: 3H-deoxyglucose uptake in C2C12 myotubes; type: cell-based, murine; details: 18 h
# Description: 2.3 ^3H-deoxyglucose uptake in C2C12 myotubes: Cell culture and the ^3H-deoxyglucose uptake assay were performed as previously described [34B, 35B, 37B]. Briefly, C2C12 murine skeletal myoblasts (American Type Culture Collection; Manassas, Va.) were cultured under standard conditions in 12-well plates. Cells were proliferated to 80% confluence in high-glucose Dulbecco's modified Eagle's medium (DMEM; Wisent; St-Bruno, QC) supplemented with 10% fetal bovine serum (FBS; Wisent), 10% horse serum (HS), and antibiotics. Differentiation into multinucleated myotubes was then promoted with DMEM supplemented with 2% HS and antibiotics. All uptake assays were performed on 7-day differentiated cells, and treatments were timed accordingly. […] DMSO concentration was fixed at 0.1% for all conditions. Cells were routinely inspected for abnormal morphology by phase-contrast microscopy at the conclusion of the treatment period. […] Cells were then washed twice in glucose-free KPB at 37° C. before incubation for exactly 10 min at 37° C. in glucose-free KPB containing 0.5 μCi/ml 2-deoxy-D-[1-^3H]glucose (Amersham Biosciences; Buckinghamshire, UK). Cells were then placed on ice and immediately washed three times with ice-cold KPB. Cells were inspected for monolayer detachment and lysed in 0.1 N NaOH with scraping. […] Three independent experiments of 18 h treatment duration were performed for each of the selected test compounds, with three replicates per condition per experiment. Vehicle-control and 50 μM 2,4-dinitrophenol conditions were included on every plate. Some compounds were also tested at 50 μM under the following conditions: a 15 h treatment with vehicle only followed by a 3 h treatment with the test compound; a 15 h treatment with the test compound followed by a 3 h repeat treatment.
# Protocol for ^3H-deoxyglucose uptake assay in C2C12 or other skeletal muscle cells; C2C12 murine skeletal myoblasts (American Type Culture Collection; Manassas, Va.) may be cultured under standard conditions in 12-well plates. Cells may be proliferated to 80% confluence in high-glucose Dulbecco's modified Eagle's medium (DMEM) supplemented with 10% fetal bovine serum (FBS), 10% horse serum (HS), and antibiotics. Differentiation into multinucleated myotubes may be then promoted with DMEM supplemented with 2% HS and antibiotics. All uptake assays may be performed on 7-day differentiated cells, and treatment onset may be timed accordingly. Cells may be treated with reference substances (such as metformin (100 or 400 μM), phenformin (100 μM), or 2,4-dinitrophenol 10-100 μM), compounds described herein, or vehicle (DMSO) in complete differentiation medium. DMSO concentration may be fixed at 0.1% for all conditions. Cells may be routinely inspected for abnormal morphology by phase-contrast microscopy at the conclusion of the treatment period. […] Cells may be then washed twice in glucose-free KPB at 37° C. before incubation for exactly 10 min at 37° C. in glucose-free KPB containing 0.5 μCi/ml 2-deoxy-D-[1-3H]glucose (Amersham Biosciences; Buckinghamshire, UK). Cells may be then placed on ice and immediately washed three times with ice-cold KPB. Cells may be inspected for monolayer detachment and lysed in 0.1 N NaOH with scraping. […] Three or more independent experiments of 18 hours treatment duration may be performed for each test compound, with three or more replicates per condition per experiment. Vehicle-control and 2,4-dinitrophenol conditions may be included on every plate for the purpose of standardizing.
# [3] = system: glucose-6-phosphatase (G6Pase) activity in H4IIE hepatocytes; assay: Glucose-6-phosphatase activity in H4IIE hepatocytes; type: cell-based, murine; details: 16 h; for suppression of G6Pase activity: 12.5 μM, result in words
# Description: 2.4 Glucose-6-phosphatase activity in H4IIE hepatocytes: H4IIE murine hepatocytes (American Type Culture Collection) were cultured to confluence in 12-well plates in DMEM supplemented with 10% FBS and antibiotics. […] Effects of test compounds on cellular viability were assessed by measuring the release of lactate dehydrogenase (LDH) into the culture medium at the end of a 16 h treatment using a commercial kit (Cytotoxicity Detection Kit; Roche Diagnostics; Laval, QC) as per the manufacturer's instructions; LDH release was expressed as % of total (medium+lysate) LDH content for each well. Cells were also routinely inspected for abnormal morphology by phase-contrast microscopy at the conclusion of the treatment period. Following treatment, cells were washed in HEPES-buffered saline (10 mM HEPES, pH 7.4, 150 mM NaCl) at 37° C. Glucose-6-phosphatase (G6Pase) activity was assessed by measuring the rate of glucose formation in the presence of a non-limiting amount of glucose-6-phosphate (G6P), as done by others [39B, 40B]. Glucose production was measured with a commercial glucose assay kit (AutoKit Glucose; Wako Diagnostics; Richmond, Va.). Two hundred μl of AutoKit Glucose buffer solution diluted 1:4 in water were added to each well. Cells were then lysed by the addition of 50 μl of 0.05% Triton X-100 in similarly diluted AutoKit Glucose buffer solution. […] At 37° C., after which time 500 μl of AutoKit Glucose color reagent were added and incubation was continued for exactly 5 min. Samples were then rapidly transferred to microcentrifuge tubes. Fifty μl were removed for assay of total protein content in order to account for effects of test compounds on cellular viability or proliferation [41B]. A commercial protein assay kit based on the Bradford method was used (Protein Assay; Bio-Rad Laboratories; Hercules, Calif.). […] The remaining volume was centrifuged at 3000×g for 5 min. Absorbance of the supernatant was measured at 505 nm at ambient temperature and glucose concentration was calculated from a standard curve performed in parallel. Control wells without exogenous G6P were included on each plate for each treatment condition and activity measured from these wells was subtracted from activity measured in the presence of exogenous G6P. G6Pase activity calculated in this way was then expressed normalized to protein content on a well-by-well basis. Two independent experiments in cells of different passages were performed for each of the selected test compounds, with four to six replicates per condition per experiment.
# Protocol for assay of glucose-6-phosphatase activity in H4IIE or other hepatocytes: H4IIE murine hepatocytes (American Type Culture Collection) may be cultured to confluence in 12-well plates in Dulbecco's modified Eagle's medium (DMEM) supplemented with 10% fetal bovine serum (FBS), and antibiotics. […] Effects of test compounds on cellular viability may be assessed by measuring the release of lactate dehydrogenase (LDH) into the culture medium at the end of a 16 hour treatment using a commercial kit (e.g., Cytotoxicity Detection Kit; Roche Diagnostics; Laval, QC) as per the manufacturer's instructions; LDH release may be expressed as % of total (i.e., medium+lysate) LDH content for each well. Cells may also be routinely inspected for abnormal morphology by phase-contrast microscopy at the conclusion of the treatment period. Following treatment, cells may be washed in HEPES-buffered saline (10 mM HEPES, pH 7.4, 150 mM NaCl) at 37° C. Glucose-6-phosphatase (G6Pase) activity may be assessed by measuring the rate of glucose formation in the presence of a non-limiting amount of glucose-6-phosphate (G6P). Glucose production may be measured with a commercial glucose assay kit (e.g., AutoKit Glucose; Wako Diagnostics; Richmond, Va.). Two hundred μl of AutoKit Glucose buffer solution diluted 1:4 in water may be added to each well.
# [4] = system: isolated rat liver mitochondria; assay: Uncoupling activity: increase in basal (state 4) oxygen consumption by oxygraphy; type: biochemical; details: for Measured Uncoupling Activity (% uncoupling ± SEM @ 100 μM): Suppl. Table 1, 2-3 mitochondrial preparations; for Measured Uncoupling (% uncoupling ± SEM @ 100 μM): Table 1A, relative to ADP-stimulated respiration = 100%; for Uncoupling (%): increase in basal (state 4) oxygen consumption as % of average ADP-stimulated (state 3) rate in vehicle-treated mitochondria
# C2C12 myotubes = assay: Morphology / monolayer detachment inspection of treated myotubes; type: cell-based, murine; details: 100 μM, 18 h
# Description: 2.3 ^3H-deoxyglucose uptake in C2C12 myotubes: Cell culture and the ^3H-deoxyglucose uptake assay were performed as previously described [34B, 35B, 37B]. Briefly, C2C12 murine skeletal myoblasts (American Type Culture Collection; Manassas, Va.) were cultured under standard conditions in 12-well plates. Cells were proliferated to 80% confluence in high-glucose Dulbecco's modified Eagle's medium (DMEM; Wisent; St-Bruno, QC) supplemented with 10% fetal bovine serum (FBS; Wisent), 10% horse serum (HS), and antibiotics. Differentiation into multinucleated myotubes was then promoted with DMEM supplemented with 2% HS and antibiotics. All uptake assays were performed on 7-day differentiated cells, and treatments were timed accordingly. […] DMSO concentration was fixed at 0.1% for all conditions. Cells were routinely inspected for abnormal morphology by phase-contrast microscopy at the conclusion of the treatment period. […] Cells were then washed twice in glucose-free KPB at 37° C. before incubation for exactly 10 min at 37° C. in glucose-free KPB containing 0.5 μCi/ml 2-deoxy-D-[1-^3H]glucose (Amersham Biosciences; Buckinghamshire, UK). Cells were then placed on ice and immediately washed three times with ice-cold KPB. Cells were inspected for monolayer detachment and lysed in 0.1 N NaOH with scraping. […]
Structure (SMILES),inhibitory effect on oxidative phosphorylation [1],Inhibitory effect (%) ([1]; test conc. 25 μM),Residual capacity (%) ([1]; test conc. 25 μM),Inhibitory effect (%) ([1]; test conc. 100 μM),Residual capacity (%) ([1]; test conc. 100 μM),increase in basal glucose uptake ([2]; at ⅛th of metformin's concentration (400 μM)),effect on basal glucose uptake relative to metformin ([2]; metformin 400 μM),suppression of G6Pase activity [3],uncoupling activity ([4]; 50 μM in 0.1% DMSO (FIG. 19)),Measured Uncoupling Activity (% uncoupling ± SEM @ 100 μM) ([4]; 100 μM),Measured Uncoupling (% uncoupling ± SEM @ 100 μM) ([4]; 100 μM),Uncoupling (%) ([4]; test conc. 25 μM),Uncoupling (%) ([4]; test conc. 100 μM),inhibition of ADP-stimulated oxygen consumption ([1]; screening at 100 μM),"uncoupling activity ([4]; 100 μM, result in words)",indications of cytotoxicity (C2C12 myotubes),increase in basal glucose uptake ([2]; 400 μM),suppression of G6Pase activity per mg total protein ([3]; 400 μM)
O=C(/C=C/c1ccc(O)c(O)c1)c1ccc(O)cc1O [butein],inhibition of ADP-stimulated consumption,23%,51 ± 12%,29%,0 ± 0%,269%,more than 6 fold,exceeding the effect of metformin at 400 μM,partial uncoupling,71 ± 4 % uncoupling,71 ± 4 % uncoupling,26 ± 4%,71 ± 4%,,,,,
O=C(/C=C/c1ccccc1)c1ccccc1 [chalcone],small inhibitory effect,,,65%,35 ± 5%,,,did not suppress G6Pase activity,devoid of uncoupling activity,−6 ± 0 % uncoupling,,,−6 ± 0%,inhibitory activity,inactive,,,
COc1cc(/C=C/C(=O)CC(=O)/C=C/c2ccc(O)c(OC)c2)ccc1O [curcumin],,17%,41 ± 9%,21%,0 ± 0%,,,,,,,42 ± 8%,79 ± 6%,,,increased susceptibility to monolayer detachment,,
O=C(/C=C/c1ccc(O)cc1)c1ccc(O)cc1O [isoliquiritigenin],,11%,65 ± 6%,0%,0 ± 0%,,,exceeding the effect of metformin at 400 μM,,108 ± 7 % uncoupling,>100 % uncoupling,24 ± 3%,108 ± 7%,,complete uncoupling,,,
O=c1c(O)c(-c2ccc(O)cc2)oc2cc(O)cc(O)c12 [kaempferol],,28%,62 ± 5%,47%,28 ± 4%,,,,,25 ± 2 % uncoupling,,10 ± 1%,25 ± 2%,,,decreased uptake relative to vehicle-control levels,,
CN(C)C(=N)N=C(N)N [metformin],,,,,,,,,,,,,,,,,43%,56%

# From patent publication US20140135359A1, “METHODS OF DESIGNING, PREPARING, AND USING NOVEL PROTONOPHORES” (priority 2012, published 2014)
